Holding throughout (format): cell-based, human
In one experiment the test system is U937. In words: relative growth in dropout media (XTT / CellTiter-Glo). The settings on record: for relief of suppressed growth by augmented supplementation (in words): cystine and tyrosine dropouts, 20 times. The method, then:
(§1) To establish the screening assay for the nutritional weakness of cancer cells, 5 human blood cancer cell lines, 4 human lung cancer cell lines, 1 human colon cancer cell line, 1 human liver cancer cell line, 5 human breast cancer cell lines, and 3 human prostate cancer cell lines were used (Table 1). All 19 cell lines were cultured in reconstituted complementary RPM11640 based media R-comp (Table 2) for more than 10 days before screening assays.
(§2) To test for nutritional weaknesses of cancer cell lines or primary cancer cells, each individual non-essential amino acid was dropped out from the R-comp media (Table 2). Multiple amino acid dropout media was used to test combinatorial effects. Prior to the experiments, cells were first acclimated in R-comp media, and then harvested and washed in EBSS solution. The cell density was adjusted to 1-3×10^5 cells/ml before adding to equal volumes of 2× dropout media plus 2× R-comp (positive control) in a 96-well plate. The plates were then placed in an incubator set at 37° C. with a 5% CO2 supply. Five technical replicates were used for each medium treatment. For each cell line, at least three biological replicates were performed with 2 time-points (day 1 and day 3).
(§3) Cell growth was analyzed with two cell viability methods (XTT and CellTiter-Glo-based assays). In the XTT-based assay, cell growth is measured by absorbance at 450 nm after adding the XTT reagent to each culture and incubating under the same culture conditions for 2 hours according to the manufacturer's instructions (ThermoFisher X6493). Absorption at 690 nm was also measured as background and subtracted from absorption at 450 nm. In the CellTiter-Glo-based assay (Promega, G7572), cell growth is measured by luminescence with a dwelling time of 200 milliseconds on a Tecan plate reader.
(§4) The relative growth is calculated with the following equation: Growth %=(readingdropout−average(readingsblank))/(average(readingsR-comp)−average(readingsblank))×100%

The test system of another experiment is H661. The description is as above. The settings on record: for relief of suppressed growth by augmented supplementation (in words): cystine and tyrosine dropouts, 20 times; for relative growth: three days. The method, then: as §1, §2, §3, §4
The test system of another experiment is H69. The description is as above. The settings on record: for relative growth: three days. As for the experimental part:
as §1, §2, §3, §4

The test system of another experiment is HCC1187. The description is as above. Conditions: —Cys (5x Met), vitamin supplementation 50x, three days, Cell-Titer-Glo. As for the experimental part:
as §1, §2, §3, §4

A further experiment deals with H520. The experiment is described as above. Conditions: for relative growth: three days. The method, then:
as §1, §2, §3, §4

The next experiment has as its system GA10. Described as above. The method, then: as §1, §2, §3, §4
The subject of another experiment is Jurkat. Described as above. As for the experimental part: as §1, §2, §3, §4
The test system of a further experiment is K562. Described as above. Conditions: for relative growth: —Cys, three days, CellTiter-Glo. As for the experimental part: as §1, §2, §3, §4
A further experiment deals with H1437. Described as above. As for the experimental part: as §1, §2, §3, §4
The subject of the next experiment is MDA-MB-453. Described as above. As for the experimental part: as §1, §2, §3, §4
The next experiment relates to HCC1599. Described as above. As for the experimental part: as §1, §2, §3, §4
The next experiment relates to HCT116. The experiment is described as above. Conditions: for growth with vitamin supplementation in the absence of cystine (in words): 50×. As for the experimental part:
as §1, §2, §3, §4

For the next experiment, the system named is HepG2. The experiment is described as above. Conditions: —Cys (5x Met), vitamin supplementation 50x, three days, Cell-Titer-Glo. As for the experimental part:
as §1, §2, §3, §4

A further experiment deals with VCaP. Described as above. Conditions: —Cys (5x Met), vitamin supplementation 50x, three days, Cell-Titer-Glo. As for the experimental part:
as §1, §2, §3, §4

The subject of a further experiment is C4-28. The experiment is described as above. Conditions: —Cys (5x Met), vitamin supplementation 50x, three days, Cell-Titer-Glo. As for the experimental part: as §1, §2, §3, §4
A further experiment relates to HL60. The description is as above. The settings on record: —Cys (5x Met), vitamin supplementation 50x, three days, Cell-Titer-Glo. As for the experimental part:
as §1, §2, §3, §4

A further experiment has as its system PC-3. The experiment is described as above. The settings on record: —Cys (5x Met), vitamin supplementation 50x, three days, Cell-Titer-Glo. The method, then:
as §1, §2, §3, §4

The subject of another experiment is HCC70. The description is as above. The settings on record: —Cys (5x Met), vitamin supplementation 50x, three days, Cell-Titer-Glo. As for the experimental part:
as §1, §2, §3, §4

The subject of another experiment is MDA-MB-231. Described as above. The settings on record: —Cys (5x Met), vitamin supplementation 50x, three days, Cell-Titer-Glo. As for the experimental part:
as §1, §2, §3, §4

The subject of the next experiment is cancer cell lines. In words: growth assay in dropout media, cancer cell lines as a group. Conditions: up to 50× strength; cell lines sensitive to cystine dropout. The method, then: as §1
To test for nutritional weaknesses of cancer cell lines or primary cancer cells, each individual non-essential amino acid was dropped out from the R-comp media (Table 2). Multiple amino acid dropout media was used to test combinatorial effects. Prior to the experiments, cells were first acclimated in R-comp media, and then harvested and washed in EBSS solution. […]
Cell growth was analyzed with two cell viability methods (XTT and CellTiter-Glo-based assays). In the XTT-based assay, cell growth is measured by absorbance at 450 nm after adding the XTT reagent to each culture and incubating under the same culture conditions for 2 hours according to the manufacturer's instructions (ThermoFisher X6493). Absorption at 690 nm was also measured as background and subtracted from absorption at 450 nm. In the CellTiter-Glo-based assay (Promega, G7572), cell growth is measured by luminescence with a dwelling time of 200 milliseconds on a Tecan plate reader. […]

The mark [1] stands for this setting: —Cys (5x Met), vitamin supplementation 50x, Cell-Titer-Glo.
Setting [2] is: —Cys, +Glut 2.5x, CellTiter-Glo.
[3] abbreviates: —Cys, +Glut 100x, CellTiter-Glo.
Where [4] appears, read: —Cys (5x Met), vitamin supplementation 50x, three days, Cell-Titer-Glo.
Where [5] appears, read: —Cys, +Cys 0.01x (5x Met), CellTiter-Glo.
[6] abbreviates: —Cys, +Cys 0.02x (5x Met), CellTiter-Glo.
The mark [7] stands for this setting: —Cys, +Cys 0.05x (5x Met), CellTiter-Glo.
Where [8] appears, read: —Cys, +Cys 0.1x (5x Met), CellTiter-Glo.
Setting [9] is: —Cys, +Cys 0.5x (5x Met), CellTiter-Glo.
The mark [10] stands for this setting: 0.1× level of cystine supplementation.

Take `N[C@@H](Cc1ccccc1)C(=O)O` [phenylalanine]: the “relief of suppressed growth by augmented supplementation (in words)” value in the experiment with U937 and in the experiment with H661 was “not brought back” throughout.
For the compound `NC(=O)c1cccnc1` [B3, niacinamide], the relative growth in the experiment with H661 (setting [1]) came to 0.2%; in the experiment on H69 (setting [1]), 5.3%; with HCC1187 it was 3.4%; in the experiment with H520 (setting [1]), 0.3%.
As to `N[C@@H](CCC(=O)N[C@@H](CS)C(=O)NCC(=O)O)C(=O)O` [+Glut, glutathione], the “restoration of growth suppressed by cystine dropout (in words)” value is listed as “not significantly” in the experiment on GA10 (10× supplementation), “substantially restored the suppressed growth” in the experiment with Jurkat (10× supplementation), “substantially restored the suppressed growth” in the experiment on H1437 (10× supplementation) and “not significantly” in the experiment with H69 (10× supplementation). The relative growth in the experiment with H661 (setting [2]) worked out at 0.2%; with H661 (—Cys, +Glut 10x, CellTiter-Glo) it was 13.0%; in the experiment on H661 (—Cys, +Glut 50x, CellTiter-Glo) it was 75.4%; in the experiment on H661 (setting [3]), 41.1%; in the experiment on K562 (+Glut 2.5x), 16.2%; in the experiment on K562 (+Glut 10x), 78.8%. Moreover, the relative growth is given as 84.4% with K562 (+Glut 50x); 98.9% in the experiment with K562 (+Glut 100x); 1.4% in the experiment on H69 (setting [2]); 2.1% in the experiment with H69 (—Cys, +Glut 10x, CellTiter-Glo); 3.6% with H69 (—Cys, +Glut 50x, CellTiter-Glo); 2.8% in the experiment with H69 (setting [3]). The relative growth in the experiment with H520 (setting [2]) is reported as 21.3%; in the experiment on H520 (—Cys, +Glut 10x, CellTiter-Glo) it was 71.3%; in the experiment on H520 (—Cys, +Glut 50x, CellTiter-Glo), 97.8%; with H520 (setting [3]) it was 105.7%.
In the case of `Cc1ncc(C[n+]2csc(CCO)c2C)c(N)n1` [B1, thiamine], the relative growth with H661 (setting [1]) is recorded as 1.5%; in the experiment on H69 (setting [1]), 5.8%; in the experiment with HCC1187, 6.2%; with H520 (setting [1]), 0.5%. Further, the “growth with vitamin supplementation in the absence of cystine (in words)” value is listed as “growth was promoted” in the experiment with MDA-MB-453 (50×), “substantially restored” in the experiment on HCC1599 and “largely restored” in the experiment on HCT116.
Turning to calcium pantothenate [B5], the relative growth worked out at 4.3% in the experiment with GA10 (setting [4]); 1.4% in the experiment with HepG2; 0.1% with VCaP; 0.0% with U937 (setting [4]); 0.2% with C4-28; 0.2% in the experiment with H661 (setting [1]). Also, the relative growth was determined as 0.3% with Jurkat (setting [4]); 0.1% in the experiment with HL60; 0.8% with PC-3; 0.5% with H1437 (setting [4]); 104.4% in the experiment with MDA-MB-453 (setting [4]); 4.9% in the experiment with HCC1599 (setting [4]). The relative growth with HCC70 is 0.9%; with H69 (setting [1]), 5.5%; in the experiment on HCC1187, 0.0%; in the experiment with HCT116 (setting [4]) it was 56.4%; in the experiment on H520 (setting [1]), 0.3%; in the experiment with MDA-MB-231, 0.2%.
As to `Cc1cc2nc3c(=O)[nH]c(=O)nc-3n(C[C@H](O)[C@H](O)[C@H](O)CO)c2cc1C` [B2, riboflavin], the relative growth with H661 (setting [1]) is on record as 0.2%; with H69 (setting [1]), 5.0%; in the experiment on HCC1187, 1.0%; with H520 (setting [1]), 0.3%. In addition, the “growth with vitamin supplementation in the absence of cystine (in words)” value with HCT116 was “even more drastic growth suppression”.
As to `Cc1ncc(CO)c(CO)c1O` [B6, pyridoxine], the relative growth was determined as 0.9% with H661 (setting [1]), 5.2% in the experiment on H69 (setting [1]), 2.2% with HCC1187 and 0.2% with H520 (setting [1]).
Turning to `O=C(O)CCCC[C@@H]1SC[C@@H]2NC(=O)N[C@@H]21` [B7, biotin], the relative growth was found to be 0.2% in the experiment on H661 (setting [1]), 5.7% with H69 (setting [1]), 5.8% in the experiment with HCC1187 and 0.2% in the experiment on H520 (setting [1]).
For `N[C@@H](CSSC[C@H](N)C(=O)O)C(=O)O` [+Cys (5x Met), cystine], the relative growth in the experiment on H661 (setting [5]) was 0.1%; in the experiment on H661 (setting [6]) it was 0.1%; with H661 (setting [7]), 0.1%; in the experiment with H661 (setting [8]) it was 0.1%; in the experiment on H661 (setting [9]), 103.2%; with K562 (+Cys 0.01x (5x Met)), 1.9%. The relative growth amounted to 2.2% with K562 (+Cys 0.02x (5x Met)); 9.5% in the experiment with K562 (+Cys 0.05x (5x Met)); 36.5% in the experiment with K562 (+Cys 0.1x (5x Met)); 101.5% in the experiment on K562 (+Cys 0.5x (5x Met)); 1.2% in the experiment on H69 (setting [5]); 1.3% in the experiment on H69 (setting [6]). Besides, the relative growth was determined as 1.2% with H69 (setting [7]); 2.1% in the experiment on H69 (setting [8]); 51.8% with H69 (setting [9]); 5.2% in the experiment on H520 (setting [5]); 4.7% in the experiment on H520 (setting [6]); 9.4% in the experiment on H520 (setting [7]). Besides, the results for the relative growth in the experiment on H520 (setting [8]) and with H520 (setting [9]) were 41.8% and 110.4%, respectively. Moreover, the “restoration of growth by adding back cystine (in words)” value with K562 (setting [10]) was “substantially restored to the levels of the control”; in the experiment with H520 (setting [10]), “merely restored”.
`CSCC[C@H](N)C(=O)O` [+Met, methionine]: the “promotion of growth under cystine dropout (in words)” value in the experiment with cancer cell lines is recorded as “failed to promote the growth”. The “relief of suppressed growth by augmented supplementation (in words)” value in the experiment on U937 and with H661 was “not brought back” each time. In addition, the relative growth is 0.1% with H661 (—Cys, +Met 10x, CellTiter-Glo); 0.1% with H661 (—Cys, +Met 50x, CellTiter-Glo); 1.6% with K562 (+Met 10x); 1.1% in the experiment with K562 (+Met 50x); 1.2% in the experiment with H69 (—Cys, +Met 10x, CellTiter-Glo); 1.2% in the experiment on H69 (—Cys, +Met 50x, CellTiter-Glo). Also, the relative growth with H520 (—Cys, +Met 10x, CellTiter-Glo) is given as 7.3%; with H520 (—Cys, +Met 50x, CellTiter-Glo) it was 16.7%. Besides, the “restoration of growth in the absence of cystine (in words)” value in the experiment with HCT116 (10×) is “substantially restore HCT116 growth”.

These data come from patent US10973251B1, “Nutritional treatment for cancer” (The Board of Trustees of the Leland Stanford Junior …, priority 2015, dated 2021).
